This is an account of results in BindingDB's records for doi:10.1016/j.bmc.2016.05.005 (University of Catania, 2016).

The nature of assay [1]: Antagonist activity at DOR in CD1 mouse vas deferens assessed as pEC50 for DPDPE-induced inhibition of EFS-evoked contractions at 1 uM incubated for 60 mins.
The nature of assay [2]: Agonist activity at MOR in Dunkin-Hartley guinea pig ileum assessed as inhibition of EFS-induced contractions incubated for 60 mins.

Regarding `C[C@H]1[C@H]2Cc3ccc(O)cc3[C@]1(C)CCN2CCC(=O)Nc1ccccc1`, the 50% effective concentration (EC50) (usually the concentration that produces a half-maximal response) in assay [1] came out at 126 µM.

Consider `C[C@H]1[C@H]2Cc3ccc(O)cc3[C@]1(C)CCN2CCC(=O)Nc1cccc2ccccc12`, for which the figures for the 50% effective concentration (EC50) in assay [2] and in assay [1] were 50.1 mM and 7.94 µM, respectively.
